Holding throughout (type): functional, cell-based
Assay [1] has as its system SF-539. Nature of the assay: Cytotoxicity against human SF539 cells after 2 days. To be noted: SF-539, 48 h.
Assay [2] deals with SNB-19. Nature of the assay: Cytotoxicity against human SNB19 cells after 2 days. To be noted: SNB-19, 48 h.
The subject of assay [3] is HCT-15. Nature of the assay: Cytotoxicity against human HCT15 cells after 2 days. To be noted: HCT-15, 48 h.
Assay [4] deals with A549. Kind of assay: Cytotoxicity against human A549 cells after 2 days. To be noted: A549, 48 h.

Converted amounts (≈) assume the structure as drawn. Starred links: 1 amine or outer side, 2 acyl side, 3 side chain; linkers in the order of their positions; H or OH if unused. Non-standard residues stand in square brackets, D forms with d. Residues, ends and D or L forms follow the SMILES beside them. X1 = O=C(c1csc([C@H](Cc2ccccc2)N[*:1])n1)[*:2]; Met(O) = CS(=O)CC[C@H](N)C(=O)O

Regarding `CSCC[C@@H]1NC(=O)[C@@H]2CCCN2C(=O)[C@@H]2CCCN2C(=O)[C@H](CCSC)NC(=O)c2csc(n2)[C@H](Cc2ccccc2)NC(=O)[C@@H]2CCCN2C1=O` [HALIGRAMIDE A] (cyclo(MPPMP[X1])), the half-maximal inhibitory concentration (IC50) – broadly, the concentration needed to halve the response being measured – in assay [1] came out at 9 µg/mL (≈ 11.5 µM); in assay [2], 9.08 µg/mL (≈ 11.6 µM); in assay [3], 15.6 µg/mL (≈ 19.9 µM); in assay [4], 5.17 µg/mL (≈ 6.59 µM).
As for `CSCC[C@@H]1NC(=O)[C@@H]2CCCN2C(=O)[C@@H]2CCCN2C(=O)[C@H](CC[S+](C)[O-])NC(=O)c2csc(n2)[C@H](Cc2ccccc2)NC(=O)[C@@H]2CCCN2C1=O` (stereo partly drawn) [HALIGRAMIDE B] (cyclo(MP[X1][Met(O)]PP)), the IC50 in assay [1] was 5.01 µg/mL (≈ 6.26 µM); in assay [2], 6.56 µg/mL (≈ 8.2 µM); in assay [3] it was 8.82 µg/mL (≈ 11 µM); in assay [4], 3.89 µg/mL (≈ 4.86 µM).

The record behind these values is ChEMBL document CHEMBL1142643, “Haligramides A and B, two new cytotoxic hexapeptides from the marine sponge Haliclona nigra” (J Nat Prod, 2000).
